Laboratory results reported in patent US9493440B2, “Compounds inhibiting leucine-rich repeat kinase enzyme activity” (Merck Sharp & Dohme Corp., priority 2013, dated 2016).

Key:
Type in all cases: biochemical
Details in all cases: 1 μM of the Example
AURKB (Aurora B) = AURKB (Aurora B) (Homo sapiens (Human), UniProt Q96GD4); assay: Kinase selectivity, Z'-LYTE assay platform
BRAF V599E = BRAF V599E (Homo sapiens (Human), UniProt P15056, V600E); assay: Kinase selectivity, Z'-LYTE assay platform
CDK1/cyclin B = CDK1/cyclin B (Homo sapiens (Human), UniProt P06493); assay: Kinase selectivity, Z'-LYTE assay platform
CHEK2 (CHK2) = CHEK2 (CHK2) (Homo sapiens (Human), UniProt O96017); assay: Kinase selectivity, Z'-LYTE assay platform
Sequence of CHEK2 (CHK2) (O96017 whole entry): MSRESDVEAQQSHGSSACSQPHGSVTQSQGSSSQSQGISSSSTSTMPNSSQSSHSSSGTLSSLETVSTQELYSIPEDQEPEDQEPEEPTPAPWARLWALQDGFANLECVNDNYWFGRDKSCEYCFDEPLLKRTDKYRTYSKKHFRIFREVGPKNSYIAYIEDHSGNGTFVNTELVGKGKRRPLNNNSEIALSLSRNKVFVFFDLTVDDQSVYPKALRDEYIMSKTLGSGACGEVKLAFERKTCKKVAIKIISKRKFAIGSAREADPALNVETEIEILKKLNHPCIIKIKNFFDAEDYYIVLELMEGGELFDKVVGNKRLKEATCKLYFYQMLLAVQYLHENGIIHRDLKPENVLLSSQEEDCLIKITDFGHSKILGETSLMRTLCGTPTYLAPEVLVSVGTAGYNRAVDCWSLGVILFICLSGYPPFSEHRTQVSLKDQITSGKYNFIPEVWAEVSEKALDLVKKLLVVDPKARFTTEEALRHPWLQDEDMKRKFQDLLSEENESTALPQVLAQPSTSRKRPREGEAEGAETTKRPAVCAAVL

CLK2 = CLK2 (Homo sapiens (Human), UniProt P49760); assay: Kinase selectivity, Z'-LYTE assay platform
Sequence of CLK2 (P49760 whole entry): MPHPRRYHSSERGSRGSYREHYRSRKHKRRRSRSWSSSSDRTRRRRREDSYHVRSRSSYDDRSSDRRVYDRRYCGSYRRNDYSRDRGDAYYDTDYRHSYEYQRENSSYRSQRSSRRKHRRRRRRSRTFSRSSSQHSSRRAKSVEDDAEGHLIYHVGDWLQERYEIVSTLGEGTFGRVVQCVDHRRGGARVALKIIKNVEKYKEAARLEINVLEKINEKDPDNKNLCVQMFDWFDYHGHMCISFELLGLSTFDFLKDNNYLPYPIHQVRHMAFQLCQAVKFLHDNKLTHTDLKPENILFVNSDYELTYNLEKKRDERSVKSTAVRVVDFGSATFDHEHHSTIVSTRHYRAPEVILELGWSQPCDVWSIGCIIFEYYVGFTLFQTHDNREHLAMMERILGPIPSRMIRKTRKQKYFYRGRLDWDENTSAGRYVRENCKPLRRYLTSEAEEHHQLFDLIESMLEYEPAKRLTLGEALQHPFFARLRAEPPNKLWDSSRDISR

DYRK1A = DYRK1A (Homo sapiens (Human), UniProt Q13627); assay: Kinase selectivity, Z'-LYTE assay platform
IRAK1 = IRAK1 (Homo sapiens (Human), UniProt P51617); assay: Kinase selectivity, Adapta assay platform
Sequence of IRAK1 (P51617 whole entry): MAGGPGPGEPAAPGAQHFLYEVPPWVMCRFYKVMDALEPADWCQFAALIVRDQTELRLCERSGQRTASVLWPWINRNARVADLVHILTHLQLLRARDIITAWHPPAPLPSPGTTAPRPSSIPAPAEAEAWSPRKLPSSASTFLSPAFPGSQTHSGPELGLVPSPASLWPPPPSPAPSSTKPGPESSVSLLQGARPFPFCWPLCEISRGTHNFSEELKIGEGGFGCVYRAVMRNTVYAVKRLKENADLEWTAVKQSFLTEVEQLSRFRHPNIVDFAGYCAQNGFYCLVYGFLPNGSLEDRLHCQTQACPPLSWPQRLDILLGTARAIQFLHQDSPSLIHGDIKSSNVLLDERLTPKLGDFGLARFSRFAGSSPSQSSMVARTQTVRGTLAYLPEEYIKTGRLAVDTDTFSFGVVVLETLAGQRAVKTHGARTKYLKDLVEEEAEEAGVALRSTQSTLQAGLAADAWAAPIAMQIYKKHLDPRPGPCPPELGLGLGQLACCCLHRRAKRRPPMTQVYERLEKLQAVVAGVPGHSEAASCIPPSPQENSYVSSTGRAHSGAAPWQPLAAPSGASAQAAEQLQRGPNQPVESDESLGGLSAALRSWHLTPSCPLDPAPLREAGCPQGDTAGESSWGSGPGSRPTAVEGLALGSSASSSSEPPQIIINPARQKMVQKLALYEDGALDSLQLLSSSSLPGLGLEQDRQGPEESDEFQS

JAK3 = JAK3 (Homo sapiens (Human), UniProt P52333); assay: Kinase selectivity, Z'-LYTE assay platform
Sequence of JAK3 (P52333 whole entry): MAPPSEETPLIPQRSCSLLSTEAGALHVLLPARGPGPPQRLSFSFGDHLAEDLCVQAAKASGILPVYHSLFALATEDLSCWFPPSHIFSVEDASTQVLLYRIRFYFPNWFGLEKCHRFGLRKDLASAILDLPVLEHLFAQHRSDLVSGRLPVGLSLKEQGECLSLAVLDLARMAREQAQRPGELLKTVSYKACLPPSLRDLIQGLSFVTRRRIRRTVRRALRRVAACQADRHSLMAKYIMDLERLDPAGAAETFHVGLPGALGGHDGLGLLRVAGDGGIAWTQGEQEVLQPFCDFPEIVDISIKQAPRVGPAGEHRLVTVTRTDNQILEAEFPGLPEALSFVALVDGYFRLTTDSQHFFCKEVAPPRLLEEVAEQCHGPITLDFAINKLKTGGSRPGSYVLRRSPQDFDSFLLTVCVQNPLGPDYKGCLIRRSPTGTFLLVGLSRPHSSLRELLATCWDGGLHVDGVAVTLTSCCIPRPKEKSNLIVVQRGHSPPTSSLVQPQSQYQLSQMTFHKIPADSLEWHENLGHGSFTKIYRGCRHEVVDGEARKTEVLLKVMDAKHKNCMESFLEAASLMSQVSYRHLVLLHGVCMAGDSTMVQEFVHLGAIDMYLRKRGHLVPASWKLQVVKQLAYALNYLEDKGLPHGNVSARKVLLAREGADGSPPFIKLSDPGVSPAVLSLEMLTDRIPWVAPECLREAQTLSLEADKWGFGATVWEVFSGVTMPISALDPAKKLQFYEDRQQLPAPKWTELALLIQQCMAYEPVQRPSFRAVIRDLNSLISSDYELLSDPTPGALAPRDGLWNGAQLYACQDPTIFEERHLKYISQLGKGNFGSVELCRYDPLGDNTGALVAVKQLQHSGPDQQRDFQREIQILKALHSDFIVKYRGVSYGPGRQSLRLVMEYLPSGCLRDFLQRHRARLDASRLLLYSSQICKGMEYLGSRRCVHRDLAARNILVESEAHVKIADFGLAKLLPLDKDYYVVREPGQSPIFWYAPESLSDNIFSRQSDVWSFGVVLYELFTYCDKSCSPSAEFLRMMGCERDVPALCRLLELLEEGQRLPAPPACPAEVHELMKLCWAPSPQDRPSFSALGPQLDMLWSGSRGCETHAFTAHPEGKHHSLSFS

MAPK1 (ERK2) = MAPK1 (ERK2) (Homo sapiens (Human), UniProt P28482); assay: Kinase selectivity, Z'-LYTE assay platform
Sequence of MAPK1 (ERK2) (P28482 whole entry): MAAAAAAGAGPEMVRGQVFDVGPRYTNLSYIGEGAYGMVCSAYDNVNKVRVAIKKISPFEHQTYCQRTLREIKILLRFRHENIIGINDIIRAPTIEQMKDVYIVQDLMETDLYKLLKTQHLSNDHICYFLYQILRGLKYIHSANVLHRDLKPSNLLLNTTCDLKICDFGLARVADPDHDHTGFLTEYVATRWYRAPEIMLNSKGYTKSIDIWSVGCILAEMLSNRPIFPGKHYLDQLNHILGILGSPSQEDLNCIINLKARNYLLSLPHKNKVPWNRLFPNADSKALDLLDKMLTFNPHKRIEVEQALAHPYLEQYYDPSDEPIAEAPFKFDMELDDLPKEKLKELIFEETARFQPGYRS

MAPK8 (JNK1) = MAPK8 (JNK1) (Homo sapiens (Human), UniProt P45983); assay: Kinase selectivity, Z'-LYTE assay platform
Sequence of MAPK8 (JNK1) (P45983 whole entry): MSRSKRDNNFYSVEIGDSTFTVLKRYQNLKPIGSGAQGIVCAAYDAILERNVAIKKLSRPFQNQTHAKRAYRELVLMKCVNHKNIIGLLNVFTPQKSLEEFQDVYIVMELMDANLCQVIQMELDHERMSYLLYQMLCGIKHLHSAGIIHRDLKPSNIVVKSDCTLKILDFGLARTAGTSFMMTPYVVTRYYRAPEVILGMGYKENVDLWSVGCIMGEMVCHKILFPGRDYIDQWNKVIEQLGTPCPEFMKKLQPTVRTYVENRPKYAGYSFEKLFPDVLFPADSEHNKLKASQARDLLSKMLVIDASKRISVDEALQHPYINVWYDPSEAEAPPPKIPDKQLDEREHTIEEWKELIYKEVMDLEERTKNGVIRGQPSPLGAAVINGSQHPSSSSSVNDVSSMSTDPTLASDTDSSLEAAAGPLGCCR

Sequence of AURKB (Aurora B) (Q96GD4 whole entry): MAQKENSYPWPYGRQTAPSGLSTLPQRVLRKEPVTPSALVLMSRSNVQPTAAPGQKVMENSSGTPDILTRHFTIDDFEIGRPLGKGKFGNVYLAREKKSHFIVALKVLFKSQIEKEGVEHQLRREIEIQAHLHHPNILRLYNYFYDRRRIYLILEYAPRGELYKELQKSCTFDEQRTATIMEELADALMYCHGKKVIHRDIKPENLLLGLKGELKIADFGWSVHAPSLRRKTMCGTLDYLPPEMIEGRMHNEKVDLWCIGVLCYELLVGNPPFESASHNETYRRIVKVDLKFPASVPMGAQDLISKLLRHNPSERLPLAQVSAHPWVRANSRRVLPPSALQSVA
Sequence of BRAF V599E (P15056 416-766 V600E limits assumed): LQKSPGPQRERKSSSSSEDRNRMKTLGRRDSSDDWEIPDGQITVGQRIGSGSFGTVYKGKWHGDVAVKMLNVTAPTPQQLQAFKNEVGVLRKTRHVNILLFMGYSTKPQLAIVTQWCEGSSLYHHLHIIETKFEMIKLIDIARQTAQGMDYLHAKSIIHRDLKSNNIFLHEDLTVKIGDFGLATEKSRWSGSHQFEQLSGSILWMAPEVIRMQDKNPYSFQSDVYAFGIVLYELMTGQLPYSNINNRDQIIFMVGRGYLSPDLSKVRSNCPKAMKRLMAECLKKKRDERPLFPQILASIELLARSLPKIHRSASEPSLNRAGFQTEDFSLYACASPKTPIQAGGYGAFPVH

| percent inhibition AURKB (Aurora B) (AURKB (Aurora B)) | percent inhibition BRAF V599E (BRAF V599E) | percent inhibition CDK1/cyclin B (CDK1/cyclin B) | percent inhibition CHEK2 (CHK2) (CHEK2 (CHK2)) | percent inhibition CLK2 (CLK2) | percent inhibition DYRK1A (DYRK1A) | percent inhibition IRAK1 (IRAK1) | percent inhibition JAK3 (JAK3) | percent inhibition MAPK1 (ERK2) (MAPK1 (ERK2)) | percent inhibition MAPK8 (JNK1) (MAPK8 (JNK1)) | SMILES |
| --- | --- | --- | --- | --- | --- | --- | --- | --- | --- | --- |
| 37% | 11% | 43% | 17% | 53% | 5% | 31% | 12% | 10% | 40% | CO[C@H]1CCN(c2cc(-c3n[nH]c4ccc(OC5(C)CC5)cc34)ncn2)C1 [Example 12] |
| 28% | 24% | 10% | 21% | 57% | 16% | 23% | 7% | 8% | 56% | CC1(Oc2ccc3[nH]nc(-c4cc(N5CCOCC5)ncn4)c3c2)CC1 [Example 1] |

| SMILES | percent inhibition AURKB (Aurora B) (AURKB (Aurora B)) | percent inhibition BRAF V599E (BRAF V599E) | percent inhibition CDK1/cyclin B (CDK1/cyclin B) | percent inhibition CHEK2 (CHK2) (CHEK2 (CHK2)) | percent inhibition CLK2 (CLK2) | percent inhibition DYRK1A (DYRK1A) | percent inhibition IRAK1 (IRAK1) | percent inhibition JAK3 (JAK3) | percent inhibition MAPK1 (ERK2) (MAPK1 (ERK2)) | percent inhibition MAPK8 (JNK1) (MAPK8 (JNK1)) |
| --- | --- | --- | --- | --- | --- | --- | --- | --- | --- | --- |
| C[C@@H]1CN(c2cc(-c3n[nH]c4ccc(OC5(C)CC5)cc34)ncn2)C[C@H](C)O1 [Example 51] | 16% | 10% | 1% | 15% | 55% | 4% | −15% | 7% | −4% | 0% |
